Source: patent publication US20250319640A1, “ACTIVE AND/OR INTELLIGENT PACKAGING MATERIALS CONTAINING RADICAL SCAVENGING LIGANDS” (CORNELL UNIVERSITY, priority 2022, published 2025)

Tests used:
[1] = system: L. monocytogenes FSL C1-0053; assay: Bacterial growth inhibition assay (modified JIS Z2801: 2000); assay type: cell-based
Text: (§1) The Japanese Industrial Standard (JIS) Z2801: 2000 method was slightly modified to analyze antibacterial activity of treated films against food-borne pathogenic bacteria (Association JS., “Antimicrobial products: Test for Antimicrobial Activity and Efficacy,” Japanese Industrial Standard JIS Z 2801 (2000), which is hereby incorporated by reference its entirety). Briefly, a culture of E. coli ATCC strain no. 25922 and a culture of L. monocytogenes from a food isolate were stored in 20% glycerol at −80° C. until use. The L. monocytogenes strain was obtained from the Cornell Food Safety Laboratory Bacterial Strains Collection as FSL C1-0053 and originally isolated from a finished ready-to-eat dairy food product. The cultures were streaked on tryptic soy agar (TSA) and incubated at 37° C. for E. coli and 30° C. L. monocytogenes for 24 hours. An isolated colony from each plate was used to inoculate 12 mL of tryptic soy broth (TSB), which was incubated with shaking for 24 hours at 37° C. A 100 μL aliquot of each culture was used to inoculate 50 mL TSB, which was incubated with shaking for 24 hours at 37° C. to achieve a cell density of 10^9 CFU/mL, which was confirmed by plate count on TSA. Each culture was diluted to reach a starting concentration of 10^5 CFU/mL, also confirmed by plate count on TSA. Treated films were cut into 5×5 cm^2 squares and stored in sterile conditions after the ethanol wash described in the synthesis step. A 0.4 mL aliquot of each 10^5 CFU/mL culture was placed on the treated films and covered with a 4×4 cm^2 sterile PP film to create a sandwich. The PP cover was lightly pressed down with sterile tweezers to distribute the inoculum across the treated film and the sandwich was placed in a Petri dish. The Petri dish was placed in an airtight box containing paper towels saturated with 100 mL of filtered water to maintain a humid environment. The entire apparatus was incubated at 37° C. for 24 hours. After incubation, 10 mL of phosphate buffered saline (PBS, pH 7.4) solution was pipetted into each Petri dish and well mixed to disassemble the sandwich and dilute the inoculated broth. An aliquot was taken from each Petri dish and serially diluted with PBS buffer. A 100 μL aliquot of the appropriate dilution was plated in duplicate on TSA and incubated for 24 hours at 37° C. Plates with 30-300 CFU were counted, and the average plate count of the duplicate plates was recorded. Plate counts for treated films were subtracted from the average plate count of the control to determine inhibition of bacterial growth. The assay was performed on triplicate coupons from two independently extruded batches, totaling 6 replicates per treatment.
(§2) To determine the antimicrobial performance of free curcumin, the assay was repeated with curcumin powder added to the starting inoculum. Curcumin powder was first completely dissolved in ethanol to prepare 2 mg/mL and 0.2 mg/mL stock solutions. Stock solutions were diluted 10× in TSB to final concentrations of 200 μg/mL and 20 μg/mL curcumin, which was then inoculated to a 10^5 CFU/mL starting concentration of either E. coli or L. monocytogenes, confirmed by plate count. The procedure was repeated by replacing the curcumin stock solutions with absolute ethanol (10% v/v in TSB) to quantify any growth inhibition due to ethanol. […]

[2] = system: E. coli ATCC strain no. 25922; assay: as above; assay type: cell-based
Text: as §1, §2

[3] = system: E. coli; details: against E. coli, previous studies; cited from earlier work
[4] = printed as pH 7.8; cited from earlier work
[5] = cited from earlier work

COc1cc(/C=C/C(=O)CC(=O)/C=C/c2ccc(O)c(OC)c2)ccc1O [curcumin]
antibacterial function of free curcumin ([1]; 20 μg/mL curcumin in TSB, L. monocytogenes): did not display any antibacterial function | inhibition of L. monocytogenes by free curcumin ([1]; 200 μg/mL curcumin, partially fell out of solution in TSB): 1.63±0.83 log (CFU/mL) | inhibition of bacterial growth compared to control ([1]; L. monocytogenes, 10^5 CFU/mL inoculum, 37° C., 24 hours): poor bacterial inhibition | antibacterial function of free curcumin ([2]; 20 μg/mL curcumin in TSB): did not display any antibacterial function | inhibition of bacterial growth compared to control ([2]; 10^5 CFU/mL inoculum, 37° C., 24 hours): poor bacterial inhibition | minimum inhibitory concentration (MIC) [3]: 100 to 200 µg/mL | pKa of the enolic hydrogen [4]: 7.8 | water solubility [5]: low
